Data: PubChem BioAssay AID2060890 (Molecular Pharmacology Branch, DTP, NCI, 2025)

Test system: LG0703-F948-PDC complex spheroid viability
Experiment: Anticancer human tumor LG0703-F948-PDC patient-derived lung adenocarcinoma cell line growth inhibition [RAS]
Conditions: for IC50: curve of first compound; for viability, T/C: stronger effect = lower value; active = viability on the fitted dose curve at most 10% of control; inactive = the rest
How it was run: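 Multi-cell-type spheroids: tumor cells plus HUVEC endothelial cells and mesenchymal stem cells. RAS-pathway inhibitors were combined with targeted agents, each dosed in half-log steps down from clinical Cmax, or from 10 microM when Cmax was unknown.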

[1] = second compound 0.0316 µM, first compound 0.0316 µM
[2] = second compound 0.0316 µM, first compound 0.1 µM
[3] = second compound 0.0316 µM, first compound 0.316 µM
[4] = second compound 0.0316 µM, first compound 1 µM
[5] = second compound 0.1 µM, first compound 0.0316 µM
[6] = second compound 0.1 µM, first compound 0.1 µM
[7] = second compound 0.1 µM, first compound 0.316 µM
[8] = second compound 0.1 µM, first compound 1 µM
[9] = second compound 0.316 µM, first compound 0.0316 µM
[10] = second compound 0.316 µM, first compound 0.1 µM
[11] = second compound 0.316 µM, first compound 0.316 µM
[12] = second compound 0.316 µM, first compound 1 µM
[13] = second compound 1 µM, first compound 0.0316 µM
[14] = second compound 1 µM, first compound 0.1 µM
[15] = second compound 1 µM, first compound 0.316 µM
[16] = second compound 1 µM, first compound 1 µM
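Also: spheroids exposed to agents for 7 days.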
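For viability, T/C in this document: 100% = DMSO vehicle wells.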

CCN1CCN(Cc2ccc(Nc3ncc(F)c(-c4cc(F)c5nc(C)n(C(C)C)c5c4)n3)nc2)CC1 + C=CC(=O)N1CCN(c2nc(OCC3CCCN3C)nc3c(F)c(-c4nc(N)cc(C)c4C(F)(F)F)c(Cl)cc23)C(C)C1
inactive: viability, T/C (second compound 0.00316 µM, first compound 0.00316 µM) 106% | viability, T/C (second compound 0.00316 µM, first compound 0.01 µM) 92.5% | viability, T/C (second compound 0.00316 µM, first compound 0.0316 µM) 85.5% | viability, T/C (second compound 0.00316 µM, first compound 0.1 µM) 74.7% | viability, T/C (second compound 0.00316 µM, first compound 0.316 µM) 85.3% | viability, T/C (second compound 0.00316 µM, first compound 1 µM) 66.9% | viability, T/C (second compound 0.01 µM, first compound 0.00316 µM) 110% | viability, T/C (second compound 0.01 µM, first compound 0.01 µM) 98.8% | viability, T/C (second compound 0.01 µM, first compound 0.0316 µM) 89.8% | viability, T/C (second compound 0.01 µM, first compound 0.1 µM) 86.5% | viability, T/C (second compound 0.01 µM, first compound 0.316 µM) 81% | viability, T/C (second compound 0.01 µM, first compound 1 µM) 71% | viability, T/C (second compound 0.0316 µM, first compound 0.00316 µM) 108% | viability, T/C (second compound 0.0316 µM, first compound 0.01 µM) 109% | viability, T/C [1] 91.1% | viability, T/C [2] 79.7% | viability, T/C [3] 82.7% | viability, T/C [4] 61.7% | viability, T/C (second compound 0.1 µM, first compound 0.00316 µM) 106% | viability, T/C (second compound 0.1 µM, first compound 0.01 µM) 98.9% | viability, T/C [5] 92.5% | viability, T/C [6] 78% | viability, T/C [7] 84.3% | viability, T/C [8] 68.9% | viability, T/C (second compound 0.316 µM, first compound 0.00316 µM) 106% | viability, T/C (second compound 0.316 µM, first compound 0.01 µM) 95.6% | viability, T/C [9] 89.6% | viability, T/C [10] 81.5% | viability, T/C [11] 78.7% | viability, T/C [12] 64.3% | viability, T/C (second compound 1 µM, first compound 0.00316 µM) 109% | viability, T/C (second compound 1 µM, first compound 0.01 µM) 109% | viability, T/C [13] 108% | viability, T/C [14] 81.2% | viability, T/C [15] 87.4% | viability, T/C [16] 65.3%
> 1000 nM: IC50 (second compound 0.00316 µM) | IC50 (second compound 0.01 µM) | IC50 (second compound 0.0316 µM) | IC50 (second compound 0.1 µM) | IC50 (second compound 0.316 µM) | IC50 (second compound 1 µM)

Cc1nc(N2CCC3(CC2)COC(C)C3N)c(CO)nc1Sc1ccnc(N)c1Cl (centres undefined) + C#Cc1c(F)ccc2cc(O)cc(-c3ncc4c(N5CC6CCC(C5)N6)nc(OCC56CCCN5CC(F)C6)nc4c3F)c12
32.7 nM: IC50 (second compound 3.16 µM)
370 nM: IC50 (second compound 0.0316 µM)
287 nM: IC50 (second compound 0.1 µM)
181 nM: IC50 (second compound 0.316 µM)
< 31.6 nM: IC50 (second compound 10 µM)
inactive: viability, T/C [1] 76.2% | viability, T/C [2] 73.7% | viability, T/C [3] 47.9% | viability, T/C [4] 35.5% | viability, T/C (second compound 0.0316 µM, first compound 3.16 µM) 20.1% | viability, T/C (second compound 0.0316 µM, first compound 10 µM) 10.7% | viability, T/C [5] 83.4% | viability, T/C [6] 63% | viability, T/C [7] 47.4% | viability, T/C [8] 35.9% | viability, T/C (second compound 0.1 µM, first compound 3.16 µM) 17.6% | viability, T/C [9] 68.1% | viability, T/C [10] 60.1% | viability, T/C [11] 40.3% | viability, T/C [12] 26.4% | viability, T/C (second compound 0.316 µM, first compound 3.16 µM) 14.4% | viability, T/C [13] 52.4% | viability, T/C [14] 51.7% | viability, T/C [15] 35.8% | viability, T/C [16] 19.9% | viability, T/C (second compound 1 µM, first compound 3.16 µM) 15.5% | viability, T/C (second compound 3.16 µM, first compound 0.0316 µM) 50.3% | viability, T/C (second compound 3.16 µM, first compound 0.1 µM) 41.5% | viability, T/C (second compound 3.16 µM, first compound 0.316 µM) 28.5% | viability, T/C (second compound 3.16 µM, first compound 1 µM) 15% | viability, T/C (second compound 10 µM, first compound 0.0316 µM) 28.7% | viability, T/C (second compound 10 µM, first compound 0.1 µM) 29.3% | viability, T/C (second compound 10 µM, first compound 0.316 µM) 20.1% | viability, T/C (second compound 10 µM, first compound 1 µM) 10.6%
active: viability, T/C (second compound 0.1 µM, first compound 10 µM) 4.95% | viability, T/C (second compound 0.316 µM, first compound 10 µM) 6.94% | viability, T/C (second compound 1 µM, first compound 10 µM) 7.42% | viability, T/C (second compound 3.16 µM, first compound 3.16 µM) 9.6% | viability, T/C (second compound 3.16 µM, first compound 10 µM) 5.81% | viability, T/C (second compound 10 µM, first compound 3.16 µM) 6.12% | viability, T/C (second compound 10 µM, first compound 10 µM) 2.83%
85.8 nM: IC50 (second compound 1 µM)
